According to US5239058A, “Proteins having anticoagulant properties” (Merck & Co., Inc., priority 1992, dated 1993):

Columns and labels:
human Factor Xa = target: T1, human Factor Xa (Homo sapiens, UniProt P00742); assay: Factor Xa chromogenic enzyme assay (Spectrozyme Xa); type: biochemical; details: for Ki: inhibitor pre-incubated with human Factor Xa, tight binding equation, read-out: Ki for inhibition of Factor Xa
T1 construct: purchased Enzyme Research Laboratories
Method: (§1) Assays were carried out at room temperature in 96-well microtiter plates. The color developed from the hydrolysis of peptide-nitroanilide substrates was monitored continuously at 405 nM on a Vmax machine (Molecular Devices). The concentration of Factor Xa was determined by active site titration. The concentrations of working solutions of the other proteases were determined spectrophotometrically using published extinction coefficients. The concentration of purified inhibitor was determined by quantitative amino acid analysis. […] In the case of human Factor Xa, the buffers also included 0.1% BSA; for S. aureus V8 protease the buffer was 50 mM NH4 HCo3. The substrates used were: Spectrozyme Xa (Factor Xa), S-2238 (thrombin), S-2356 (chymotrypsin), S-2366 (Factor XIa) Boc-AlaAla-Pro-Ala-pNA (elastase), Spectrozyme Pkal (kallikrein), Spectrozyme PL (plasmin), Spectrozyme UK (urokinase) Z-Phe-Leu-Glu-pNA (S. aureus V8 protease) and Spectrozyme tPA for tPA. Factor VIIa was assayed by measuring the release of the ^3 H-activation peptide from human Factor X. For kinetic analyses, assays were carried for up to 10 min. followed by estimation of the initial rate where less than 5% of the added substrate was utilized.
Because the TAP-1 was pre-incubated with the human Factor Xa to establish equilibrium in the absence of substrate, a value for the intrinsic Ki irrespective of the mechanism was calculated (solid line) using the equation for tight binding inhibition described in the article by Morrison, J. F. in Biochem. Biophys. Acta 185,269 (1969). The effect on TAP-1 on various proteases also was tested.

Factor VIIa = Factor VIIa (Homo sapiens, UniProt P08709); assay: Factor VIIa assay (release of 3H-activation peptide from human Factor X); type: biochemical; details: 300-fold molar excess of TAP-1 over protease
Method: as §1, with “Factor VIIa was assayed by measuring the release of the ^3 H-activation peptide from human Factor X. For kinetic analyses, assays were carried for up to 10 min. followed by estimation of the initial rate where less than 5% of the added substrate was utilized.” left out
(§2) Because the TAP-1 was pre-incubated with the human Factor Xa to establish equilibrium in the absence of substrate, a value for the intrinsic Ki irrespective of the mechanism was calculated (solid line) using the equation for tight binding inhibition described in the article by Morrison, J. F. in Biochem. Biophys. […]

thrombin = target: T2, thrombin (Bos taurus, UniProt P00735); assay: thrombin chromogenic enzyme assay (S-2238); type: biochemical, bovine; details: 300-fold molar excess of TAP-1 over protease
T2 construct: responsible for the Factor Xa conversion of prothrombin to thrombin in vivo; purchased Calbiochem
Source text: (§3) Ornithodoros moubata ticks were obtained from South Africa through Antibody Associates, Inc. (Bedford, Tex.). Colorimetric substrates were purchased from Helena Labs, American Diagnostica, and Chemical Dynamics. Human Factor Xa was from Enzyme Research Laboratories. Human plasmin, urokinase, and bovine thrombin were from Calbiochem; bovine trypsin, chymotrypsin, and pancreatic elastase were from Worthington Enzymes, Inc. Plasma kallikrein, carboxypeptidase Y, S. aureus V8 protease and protease inhibitors were from Sigma. Two chain tPA was from American Diagnostica.
(§4) Assays were carried out at room temperature in 96-well microtiter plates. […] The concentration of Factor Xa was determined by active site titration. The concentrations of working solutions of the other proteases were determined spectrophotometrically using published extinction coefficients. The concentration of purified inhibitor was determined by quantitative amino acid analysis. […]
as §2

chymotrypsin = target: T3, chymotrypsin (Bos taurus, UniProt P00766); assay: chymotrypsin chromogenic enzyme assay (S-2356); type: biochemical, bovine; details: 300-fold molar excess of TAP-1 over protease
T3 construct: purchased Worthington Enzymes, Inc
Source text: as §3, §4, §2

pancreatic elastase = target: T4, pancreatic elastase (Sus scrofa, UniProt P00772); assay: elastase chromogenic enzyme assay (Boc-AlaAla-Pro-Ala-pNA); type: biochemical; details: 300-fold molar excess of TAP-1 over protease
T4 construct: purchased Worthington Enzymes, Inc
Source text: as §3, §4, §2

trypsin = target: T5, trypsin (Bos taurus, UniProt P00760); assay: trypsin chromogenic enzyme assay; type: biochemical, bovine; details: 300-fold molar excess of TAP-1 over protease
T5 construct: purchased Worthington Enzymes, Inc
T5 sequence (P00760 24-246): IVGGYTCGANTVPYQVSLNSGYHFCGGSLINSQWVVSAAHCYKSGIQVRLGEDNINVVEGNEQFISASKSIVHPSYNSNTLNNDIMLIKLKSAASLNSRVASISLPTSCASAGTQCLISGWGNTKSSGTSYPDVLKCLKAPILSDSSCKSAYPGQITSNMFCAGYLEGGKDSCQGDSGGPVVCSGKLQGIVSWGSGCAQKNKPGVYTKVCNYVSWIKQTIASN
Source text: as §3, §4, §2

Plasma kallikrein = target: T6, Plasma kallikrein (Homo sapiens, UniProt P03952); assay: kallikrein chromogenic enzyme assay (Spectrozyme Pkal); type: biochemical; details: 300-fold molar excess of TAP-1 over protease
T6 construct: purchased Sigma
Source text: as §3, §4, §2

urokinase = target: T7, urokinase (Homo sapiens, UniProt P00749); assay: urokinase chromogenic enzyme assay (Spectrozyme UK); type: biochemical; details: 300-fold molar excess of TAP-1 over protease
T7 construct: purchased Calbiochem
Source text: as §3, §4, §2

plasmin = target: T8, plasmin (Homo sapiens, UniProt P00747); assay: plasmin chromogenic enzyme assay (Spectrozyme PL); type: biochemical; details: 300-fold molar excess of TAP-1 over protease
T8 construct: Human plasmin, urokinase, and bovine thrombin were from Calbiochem; purchased Calbiochem
Source text: as §3, §4, §2

S. aureus V8 protease = S. aureus V8 protease (Staphylococcus aureus, UniProt P0C1U8); details: 300-fold molar excess of TAP-1 over protease
Source text: as §3, §4, §2

Normal Human Plasma [1] = assay: Prothrombin Time, plasma based clotting assay; type: biochemical
Normal Human Plasma [2] = assay: Activated Partial Thromboplastin Time, plasma based clotting assay; type: biochemical
Normal Human Plasma [3] = assay: Modified Stypven Time, plasma based clotting assay; type: biochemical
[4] = system: thromboplastin-induced clot formation; assay: in vivo model of thromboplastin-induced clot formation (jugular vein); set-up: species or system rabbit; details: rabbits, untreated 29.2±3.4%
Method: An in vivo model of thromboplastin-induced clot formation similar to Van Ryn-McKenna, et al., (1989) Thrombosis and Haemostasis 61:7-9 was used to determine the efficacy of the Factor Xa inhibitor recombinant TAP-1. Rabbits were pretreated with an infusion of recombinant TAP-1 for 60 minutes, at which time a segment of the jugular vein was isolated and occluded. Thromboplastin and whole blood withdrawn from the carotid artery were injected into the segment in order to induce clot formation. The jugular vein remained occluded for 30 minutes before the clot was removed and quantitated.

[5] = system: activated partial thromboplastin time; assay: activated partial thromboplastin time in infused rabbits; type: in vivo, rabbit; details: i.v. infusions of 7, 37 and 64 μg/kg/min
prothrombin time = prothrombin time in infused rabbits; type: in vivo, rabbit; details: i.v. infusions of 7, 37 and 64 μg/kg/min
[6] = 28.9 pMol TAP-1, Normal Human Plasma
[7] = 57.8 pMol TAP-1, Normal Human Plasma
[8] = 115 pMol TAP-1, Normal Human Plasma

T1 sequence (P00742 235-488 limits assumed): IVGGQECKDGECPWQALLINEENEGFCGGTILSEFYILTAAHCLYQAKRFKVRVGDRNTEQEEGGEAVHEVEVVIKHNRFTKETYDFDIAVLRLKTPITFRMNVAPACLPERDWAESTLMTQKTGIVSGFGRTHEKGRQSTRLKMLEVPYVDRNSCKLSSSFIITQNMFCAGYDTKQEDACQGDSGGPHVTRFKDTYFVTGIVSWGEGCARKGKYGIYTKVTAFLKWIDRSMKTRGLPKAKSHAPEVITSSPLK
T1 sequence (P00742 41-179 partner limits assumed): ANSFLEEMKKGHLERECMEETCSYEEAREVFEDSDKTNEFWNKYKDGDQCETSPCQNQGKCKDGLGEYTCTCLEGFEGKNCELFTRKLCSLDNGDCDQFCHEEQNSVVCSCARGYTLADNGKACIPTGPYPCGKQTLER
T6 sequence (P03952 391-638 limits assumed, species assumed): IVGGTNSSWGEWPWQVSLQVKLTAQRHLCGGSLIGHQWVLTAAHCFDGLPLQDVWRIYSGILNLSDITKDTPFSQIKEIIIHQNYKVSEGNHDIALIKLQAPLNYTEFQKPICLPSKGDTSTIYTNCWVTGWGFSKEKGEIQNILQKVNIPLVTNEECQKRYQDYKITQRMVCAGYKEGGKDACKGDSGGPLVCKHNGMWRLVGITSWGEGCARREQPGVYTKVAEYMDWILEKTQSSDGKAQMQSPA
T6 sequence (P03952 20-390 partner limits assumed, species assumed): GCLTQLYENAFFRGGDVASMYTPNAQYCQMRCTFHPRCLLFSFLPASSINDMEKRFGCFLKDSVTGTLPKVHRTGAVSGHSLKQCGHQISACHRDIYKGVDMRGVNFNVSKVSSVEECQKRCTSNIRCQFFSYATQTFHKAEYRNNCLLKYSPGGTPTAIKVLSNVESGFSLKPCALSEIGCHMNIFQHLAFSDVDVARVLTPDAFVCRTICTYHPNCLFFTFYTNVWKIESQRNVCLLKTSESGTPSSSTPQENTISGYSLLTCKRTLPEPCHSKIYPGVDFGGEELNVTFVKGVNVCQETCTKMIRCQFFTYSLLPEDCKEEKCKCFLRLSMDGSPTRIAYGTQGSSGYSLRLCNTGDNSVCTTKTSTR
T4 sequence (P00772 27-266): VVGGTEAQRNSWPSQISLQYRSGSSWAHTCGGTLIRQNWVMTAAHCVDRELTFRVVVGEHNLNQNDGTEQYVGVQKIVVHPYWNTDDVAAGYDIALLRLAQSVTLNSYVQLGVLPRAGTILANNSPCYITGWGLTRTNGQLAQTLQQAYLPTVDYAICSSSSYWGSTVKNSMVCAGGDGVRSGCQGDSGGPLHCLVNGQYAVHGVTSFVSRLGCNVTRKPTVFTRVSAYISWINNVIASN
Sequence of S. aureus V8 protease (P0C1U8 69-336): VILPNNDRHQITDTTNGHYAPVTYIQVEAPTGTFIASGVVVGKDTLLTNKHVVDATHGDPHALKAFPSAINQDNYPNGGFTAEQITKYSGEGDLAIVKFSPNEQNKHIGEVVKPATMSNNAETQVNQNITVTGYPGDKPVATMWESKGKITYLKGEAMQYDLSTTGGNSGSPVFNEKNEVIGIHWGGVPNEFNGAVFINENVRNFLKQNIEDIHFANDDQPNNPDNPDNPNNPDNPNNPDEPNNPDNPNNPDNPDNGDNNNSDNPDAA
Sequence of Factor VIIa (P08709 213-466 limits assumed): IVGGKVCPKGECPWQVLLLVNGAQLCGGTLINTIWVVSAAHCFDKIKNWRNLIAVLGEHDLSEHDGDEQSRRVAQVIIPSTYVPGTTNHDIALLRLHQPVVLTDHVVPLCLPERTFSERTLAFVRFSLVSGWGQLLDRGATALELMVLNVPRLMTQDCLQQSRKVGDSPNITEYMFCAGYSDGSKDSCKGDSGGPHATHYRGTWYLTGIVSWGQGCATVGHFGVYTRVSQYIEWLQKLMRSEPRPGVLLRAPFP
Sequence of Factor VIIa (P08709 61-212 partner limits assumed): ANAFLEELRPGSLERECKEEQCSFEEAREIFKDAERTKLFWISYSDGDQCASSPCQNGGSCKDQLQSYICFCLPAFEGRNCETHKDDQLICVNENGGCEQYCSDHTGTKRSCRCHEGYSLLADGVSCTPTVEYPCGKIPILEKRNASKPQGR
Sequence of Factor VIIa (P13726 33-295 partner): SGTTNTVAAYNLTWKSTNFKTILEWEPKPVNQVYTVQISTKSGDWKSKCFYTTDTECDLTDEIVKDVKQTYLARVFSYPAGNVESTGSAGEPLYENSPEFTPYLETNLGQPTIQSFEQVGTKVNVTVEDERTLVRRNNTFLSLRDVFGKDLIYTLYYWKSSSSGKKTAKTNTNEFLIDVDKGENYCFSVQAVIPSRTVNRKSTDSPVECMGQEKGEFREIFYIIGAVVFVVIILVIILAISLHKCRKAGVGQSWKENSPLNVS
T8 sequence (P00747 581-810 limits assumed): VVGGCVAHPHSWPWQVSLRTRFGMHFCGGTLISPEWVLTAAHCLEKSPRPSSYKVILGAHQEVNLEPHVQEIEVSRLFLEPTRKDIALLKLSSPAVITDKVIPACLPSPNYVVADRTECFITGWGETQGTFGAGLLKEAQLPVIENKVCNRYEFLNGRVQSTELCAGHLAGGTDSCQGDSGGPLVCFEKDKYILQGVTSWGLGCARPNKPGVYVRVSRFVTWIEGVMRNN
T8 sequence (P00747 97-580 partner limits assumed): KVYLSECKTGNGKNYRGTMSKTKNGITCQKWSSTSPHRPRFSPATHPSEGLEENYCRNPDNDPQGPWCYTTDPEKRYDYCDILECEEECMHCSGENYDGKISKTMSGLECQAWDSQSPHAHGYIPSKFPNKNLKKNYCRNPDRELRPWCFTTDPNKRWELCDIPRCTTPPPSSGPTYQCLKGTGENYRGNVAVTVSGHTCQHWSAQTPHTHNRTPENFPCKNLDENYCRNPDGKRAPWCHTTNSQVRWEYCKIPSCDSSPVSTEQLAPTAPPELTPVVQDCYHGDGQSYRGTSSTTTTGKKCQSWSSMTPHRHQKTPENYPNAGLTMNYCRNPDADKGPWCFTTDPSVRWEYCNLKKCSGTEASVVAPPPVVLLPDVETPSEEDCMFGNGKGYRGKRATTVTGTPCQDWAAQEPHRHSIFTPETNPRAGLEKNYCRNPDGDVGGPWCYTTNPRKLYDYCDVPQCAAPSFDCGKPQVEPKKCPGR

Substance: TAP-1: 60 amino acid Factor Xa inhibitor protein purified from Ornithodoros moubata tick extracts (YNRLCIKPRDWIDECDSNEGGERAYFRNGKGGCDSFWICPEDHTGADYYSSYRDCFNACI; UniProt P17726 1-60, looked up)
- effect of Ca++ on the ability to inhibit Factor Xa (human Factor Xa; inclusion of 1-5 mM Ca++): no effect
- Ki (human Factor Xa): 0.58 nM
- inhibition of Factor VIIa (Factor VIIa): no inhibition
- inhibition of thrombin (thrombin): no inhibition
- inhibition of chymotrypsin (chymotrypsin): no inhibition
- inhibition of elastase (pancreatic elastase): no inhibition
- inhibition of trypsin (trypsin): no inhibition
- inhibition of kallikrein (Plasma kallikrein): no inhibition
- inhibition of urokinase (urokinase): no inhibition
- inhibition of plasmin (plasmin): no inhibition
- inhibition of S. aureus V8 protease (S. aureus V8 protease): no inhibition
- Clotting Time, Prothrombin Time (Normal Human Plasma [1]; 1.15 pMol TAP-1, Normal Human Plasma): 15.1 s
- Clotting Time, Prothrombin Time (Normal Human Plasma [1]; [6]): 28.9 s
- Clotting Time, Prothrombin Time (Normal Human Plasma [1]; [7]): 31.2 s
- Clotting Time, Prothrombin Time (Normal Human Plasma [1]; [8]): 48.7 s
- Clotting Time, Activated Partial Thromboplastin Time (Normal Human Plasma [2]; [6]): 45.2 s
- Clotting Time, Activated Partial Thromboplastin Time (Normal Human Plasma [2]; [7]): 57.7 s
- Clotting Time, Activated Partial Thromboplastin Time (Normal Human Plasma [2]; [8]): 92.2 s
- Clotting Time, Modified Stypven Time (Normal Human Plasma [3]; [6]): 17.7 s
- Clotting Time, Modified Stypven Time (Normal Human Plasma [3]; [7]): 31.2 s
- Clotting Time, Modified Stypven Time (Normal Human Plasma [3]; [8]): 65.1 s

Substance: recombinant TAP-1: TAP-1 expressed from a synthetic gene in S. cerevisiae and purified from broth (YNRLCIKPRDWIDECDSNEGGERAYFRNGKGGCDSFWICPEDHTGADYYSSYRDCFNACI; UniProt P17726 1-60, looked up)
- Ki (human Factor Xa): 0.2 nM
- Clot formation (normalized clot value) ([4]; i.v. infusion 7 μg/kg/min for 60 minutes): 27.0±7.5%
- Clot formation (normalized clot value) ([4]; i.v. infusion 37 μg/kg/min for 60 minutes): 7.9±2.0%
- Clot formation (normalized clot value) ([4]; i.v. infusion 64 μg/kg/min for 60 minutes): 1.9±1.0%
- effect on activated partial thromboplastin time [5]: did not significantly increase
- effect on prothrombin time (prothrombin time): did not significantly increase
